How the values were obtained:
rats = assay: Antidiabetic action model: glucose level in blood of rats given glucose orally; assay type: in vivo, Male Sprague Dawley rats; details: 1 to 1000 mg/kg, with glucose 0.5 to 4 g/kg orally
Procedure: Male Sprague Dawley rats of body weight of 150 to 200 grams are fasted overnight and glucose is then administered orally at the rate of 0.5 to 4 g/kg by using a stomach tube. Blood is drawn from the tail vein of each rat at suitable time intervals to determine glucose level in the blood. The glucose content in the blood increases rapidly to cause hyperglycemia.

[1] = system: Sucrose-Administered Rats; assay: Inhibitory action against increase of blood glucose for sucrose-administered rats; assay type: in vivo, Male Sprague Dawley rats; details: with 2 g/kg sucrose
Procedure: Male Sprague Dawley rats with body weight of 150 to 200 grams were fasted overnight, and 2 g/kg of sucrose was administered orally by using a stomach tube. The compound of this invention was simultaneously administered in a similar way at the rate of 1 to 100 mg/kg, and blood was drawn from the tail vein of each rat at suitable time intervals and blood glucose levels were measured by a method using glucose oxidase.

mice = assay: Acute toxicity (LD50) in mice; assay type: in vivo
[2] = Acute toxicity (LD50) in mice; assay type: in vivo; details: mouse, in vivo
healthy = assay: Glucose level in the blood of healthy man after oral carbohydrate; assay type: in vivo, human; details: 1 to 1000 mg/kg orally, with 50 to 100 grams of glucose
lipid biosynthesis = assay: Ability to inhibit lipid biosynthesis
[3] = system: Glucose-administered Rats; assay: Inhibitory action against increase of glucose in blood of glucose-administered rats; assay type: in vivo, Male Sprague Dawley rats; details: with 2 g/kg glucose; for Blood Glucose Concentration: 5 rats
Procedure: Male Sprague Dawley rats with body weights ranging from 150 to 200 grams were fasted overnight, and then 2 g/kg of glucose was administered orally by using a stomach tube. The compound of this invention was also administered simultaneously in an amount of 10 to 100 mg/kg, and blood was drawn from the tail vein of each rat at suitable time intervals, and blood glucose levels were measured according to a method using glucose oxidase (Blood Sugar Test, TC-M-III, Boehringer Mannheim A.G.).

humans and other animals = assay: Ability to inhibit or reduce the increase of glucose levels in humans and other animals; assay type: in vivo; details: upon administration of glucose or a glucose producing carbohydrate
Starch-Administered Rats = assay: Inhibitory action against increase of blood glucose for starch-administered rats; assay type: in vivo, Male Sprague Dawley rats; details: with 1 g/kg starch; for Blood Glucose Concentration: 5 rats
Procedure: Male Sprague Dawley rats with body weight of 150 to 200 grams were fasted overnight, and 1 g/kg of starch was administered orally by using a stomach tube. The compound of this invention was simultaneously administered at the dose of 10 to 100 mg/kg, and blood was drawn from the tail vein of each rat and blood glucose levels were examined by a method using glucose oxidase.

[4] = 10 mg/kg oral, 0 min after administration
[5] = 10 mg/kg oral, 15 min after administration
[6] = 10 mg/kg oral, 30 min after administration
[7] = 10 mg/kg oral, 60 min after administration
[8] = 100 mg/kg oral, 0 min after administration
[9] = 100 mg/kg oral, 15 min after administration
[10] = 100 mg/kg oral, 30 min after administration
[11] = 100 mg/kg oral, 60 min after administration

For `OC[C@H]1NC[C@H](O)[C@@H](O)[C@@H]1O` [compound of this invention, 2(R),3(R),4(R),5(S)-2-hydroxymethyl-3,4,5-trihydroxypiperidine], the “rise of the glucose content in the blood” value (rats) was “rise of the glucose content in the blood is inhibited”, the “Blood Glucose Concentration” value ([1]; 1 mg/kg oral, 0 min after administration, 5 rats) was 69 mg % and the “Blood Glucose Concentration” value ([1]; 1 mg/kg oral, 15 min after administration, 5 rats) was 98 mg %. For the same compound, the “Blood Glucose Concentration” value ([1]; 1 mg/kg oral, 30 min after administration, 5 rats) was 121 mg %, the “Blood Glucose Concentration” value ([1]; 1 mg/kg oral, 60 min after administration, 5 rats) was 127 mg % and the “Blood Glucose Concentration” value ([1]; 10 mg/kg oral, 0 min after administration, 6 rats) was 47 mg %. The “Blood Glucose Concentration” value ([1]; 10 mg/kg oral, 15 min after administration, 6 rats) was 57 mg %, the “Blood Glucose Concentration” value ([1]; 10 mg/kg oral, 30 min after administration, 6 rats) was 52 mg % and the “Blood Glucose Concentration” value ([1]; 10 mg/kg oral, 60 min after administration, 6 rats) was 97 mg %. For the same compound, the “Increase of glucose in the blood” value ([1]; 10 mg/kg) was “totally inhibited”, the “Blood Glucose Concentration” value ([1]; 100 mg/kg oral, 0 min after administration, 5 rats) was 52 mg % and the “Blood Glucose Concentration” value ([1]; 100 mg/kg oral, 15 min after administration, 5 rats) was 66 mg %. For the same compound, the “Blood Glucose Concentration” value ([1]; 100 mg/kg oral, 30 min after administration, 5 rats) was 63 mg %, the “Blood Glucose Concentration” value ([1]; 100 mg/kg oral, 60 min after administration, 5 rats) was 64 mg % and the toxicity (mice) was “very low”. For the same compound, the LD50 ([2]; intravenous administration) was over 800 mg/kg, the LD50 ([2]; oral administration) was over 1200 mg/kg and the “rise of the glucose content in the blood” value (healthy) was “rise of the glucose content in the blood is inhibited corresponding to the dosage”. The “inhibition of lipid biosynthesis” value (lipid biosynthesis) was “inhibit lipid biosynthesis”, the “Blood Glucose Concentration” value [3, 4] was 59 mg % and the “Blood Glucose Concentration” value [3, 5] was 100 mg %. For the same compound, the “Blood Glucose Concentration” value [3, 6] was 108 mg %, the “Blood Glucose Concentration” value [3, 7] was 107 mg % and the “Blood Glucose Concentration” value [3, 8] was 52 mg %. For the same compound, the “Blood Glucose Concentration” value [3, 9] was 59 mg %, the “Blood Glucose Concentration” value [3, 10] was 58 mg % and the “Blood Glucose Concentration” value [3, 11] was 63 mg %. The “Increase of glucose in the blood” value ([3]; 100 mg/kg) was “totally inhibited”, the “increase of glucose levels” value (humans and other animals) was “inhibit or reduce the increase of glucose levels” and the “Blood Glucose Concentration” value (Starch-Administered Rats; [4]) was 53 mg %. The “Blood Glucose Concentration” value (Starch-Administered Rats; [5]) was 67 mg %, the “Blood Glucose Concentration” value (Starch-Administered Rats; [6]) was 80 mg % and the “Blood Glucose Concentration” value (Starch-Administered Rats; [7]) was 83 mg %. For the same compound, the “Blood Glucose Concentration” value (Starch-Administered Rats; [8]) was 52 mg %, the “Blood Glucose Concentration” value (Starch-Administered Rats; [9]) was 57 mg % and the “Blood Glucose Concentration” value (Starch-Administered Rats; [10]) was 63 mg %. For the same compound, the “Blood Glucose Concentration” value (Starch-Administered Rats; [11]) was 59 mg % and the “Increase of glucose in the blood” value (Starch-Administered Rats; 100 mg/kg) was “totally inhibit increase of glucose in the blood”.

Source: USRE30886E, “Method and composition for reducing blood glucose levels” (Nippon Shinyaku Company Ltd., priority 1975, dated 1982)
